Laboratory results from patent US7026134B2 (priority 2001, dated 2006).
Values after ≈ are worked out from the molar mass of the structure shown. Like-named read-outs stand apart in the source and are kept apart here.

Tests used:
[1] = tested on: IgG fraction of the antiserum raised to immunogen B (hapten B-BSA); assay type: binding, sheep; conditions: for IC50, OP: concentration of test opiate that causes 50% displacement of signal, Table 3, Example 13 (b); for IC50: standard concentration which produces 50% B/B0
[2] = tested on: IgG fraction of the antiserum raised to immunogen A (hapten A-BSA); assay type: binding, sheep; conditions: for IC50, OP: concentration of test opiate that causes 50% displacement of signal, Table 3, Example 13 (a); for IC50: standard concentration which produces 50% B/B0
Procedure: Aqueous solutions of the immunogens prepared in Examples 7 and 8 were formulated with Freund's Complete Adjuvant (FCA) to form emulsions consisting of 4 mg/ml immunogen A and 2 mg/ml immunogen B in 50% (v/v) FCA. Three sheep were immunized with each emulsion (1° immunizations), 0.25 ml being subcutaneously injected at each of four sites in the flank of each animal. The next immunizations (first boosts) contained 2 mg/ml immunogen A and 1 mg/ml immunogen B. Subsequent immunizations (boosts […]) contained 1 mg/ml of each immunogen. All boosts were emulsified in 50% (v/v) Freund's Incomplete Adjuvant (FIA) and administered to the appropriate sheep in the same manner as the 1° immunizations, at monthly intervals for 1 year. Blood sampling took place 7 to 14 days after each boost. Each sample was processed to produce antiserum which was further purified by caprylic acid and ammonium sulfate precipitation to yield an immunoglobulin G (IgG) fraction. The IgG fraction was evaluated by competitive ELISA microtiter plate assay, as described in Example 12 below.
(a) The wells of an enhanced binding 96-well polystyrene microtiter plate were coated with the IgG fraction of the antiserum raised to immunogen A (hapten A-BSA) (Example 7), diluted in 10 mM Tris, pH8.5 (125 μl/well). The appropriate antibody coating dilution was determined using standard ELISA chequerboard techniques. The plate was incubated for 2 hours at 37° C., washed 4 times with Tris-buffered saline containing Tween 20 (TBST) and tapped dry. […] 75 μl of conjugate A (hapten A-HRP) (Example 10), diluted in Tris buffer containing EDTA, D-mannitol, sucrose, thimerosal and BSA, was added to each of the wells. The appropriate dilution of conjugate was also determined using standard ELISA chequerboard techniques. The plate was incubated at 37° C. for 2 hours. The excess unbound conjugate was removed by washing 6 times over a 10 minute period with TBST. 125 μl of tetramethylbenzedine (TMB) substrate solution was added to each well of the plate that was then incubated for 15 to 20 minutes in the dark at room temperature. The reaction was terminated by addition of 125 μl 0.2M H2SO4 to each well. The absorbance was then measured at 450 nm using a microtiter plate reader.

[3] = percentage cross-reactivity based on specificity to oxycodone, Table 2
[4] = standard concentration 10 ng/ml
[5] = standard concentration 50 ng/ml
[6] = standard concentration 100 ng/ml
[7] = standard concentration 250 ng/ml
[8] = standard concentration 500 ng/ml
[9] = standard concentration 1000 ng/ml
[10] = standard concentration 2000 ng/ml
[11] = percentage cross-reactivity based on specificity to oxycodone, Table 1
[12] = standard concentration 0.5 ng/ml
[13] = standard concentration 25 ng/ml

SMILES	% CR [1]	IC50, OP [1]	% CR [2]	IC50, OP [2]	% CR [1, 3]	% B/B0 [1, 4]	% B/B0 [1, 5]	% B/B0 [1, 6]	% B/B0 [1, 8]	% B/B0 [1, 9]	% B/B0 [1, 10]	% CR [2, 11]	% B/B0 [2, 12]	% B/B0 ([2]; standard concentration 1 ng/ml)	% B/B0 [2, 13]	% B/B0 [2, 6]	% B/B0 [2, 7]	% B/B0 [2, 8]	IC50 ([2]; Table 1)	further results
COc1ccc2c3c1O[C@H]1[C@@H](O)C=C[C@H]4[C@@H](C2)N(C)CC[C@@]341 [Codeine]	<2.7%	>2 µg/mL	2.2%	0.3867 µg/mL (≈ 1.29 µM)	–	–	–	–	–	–	–	–	–	–	–	–	–	–	–	–
COc1ccc2c3c1O[C@H]1[C@@H](O)CC[C@H]4[C@@H](C2)N(C)CC[C@@]341 [Dihydrocodone]	<2.7%	>2 µg/mL	<1.7%	>0.5 µg/mL	–	–	–	–	–	–	–	–	–	–	–	–	–	–	–	–
COc1ccc2c3c1O[C@H]1C(=O)CC[C@H]4[C@@H](C2)N(C)CC[C@]314 [Hydrocodone]	75.6%	0.0724 µg/mL (≈ 0.242 µM)	<1.7%	>0.5 µg/mL	–	–	–	–	–	–	–	–	–	–	–	–	–	–	–	–
CN1CC[C@]23c4c5ccc(O[C@@H]6O[C@H](C(=O)O)[C@@H](O)[C@H](O)[C@H]6O)c4O[C@H]2[C@@H](O)C=C[C@H]3[C@H]1C5 [Morphine-3-glucuronide]	<2.7%	>2 µg/mL	<1.7%	>0.5 µg/mL	–	–	–	–	–	–	–	–	–	–	–	–	–	–	–	–
CN1CC[C@]23c4c5ccc(O)c4O[C@H]2[C@@H](O)C=C[C@H]3[C@H]1C5 [Morphine]	<2.7%	–	<1.7%	–	–	–	–	–	–	–	–	–	–	–	–	–	–	–	–	–
COc1ccc2c3c1O[C@H]1C(=O)CC[C@@]4(O)[C@@H](C2)NCC[C@]314 [Noroxycodone]	–	–	–	–	23.4%	90.7%	70.9%	65.0%	43.7%	32.5%	24.4%	<1.7%	99.3%	100.2%	99.3%	97.7%	96.1%	92.8%	>0.5 µg/mL	% B/B0 [1, 7]: 52.0%; IC50 ([1]; Table 2): 0.2335 µg/mL (≈ 0.775 µM); % B/B0 ([2]; standard concentration 5 ng/ml): 100.3%
COc1ccc2c3c1O[C@H]1C(=O)CC[C@@]4(O)[C@@H](C2)N(C)CC[C@]314 [Oxycodone]	–	–	–	–	100.0%	75.7%	50.1%	41.9%	17.8%	12.2%	8.3%	100.0%	88.6%	82.2%	36.1%	22.2%	14.8%	10.1%	0.0087 µg/mL (≈ 0.0276 µM)	–
CN1CC[C@]23c4c5ccc(O)c4O[C@H]2C(=O)CC[C@@]3(O)[C@H]1C5 [Oxymorphone]	–	–	–	–	<2.7%	103.8%	97.3%	95.0%	90.1%	84.2%	76.7%	26.5%	93.0%	90.5%	57.1%	39.2%	29.2%	24.4%	0.0328 µg/mL (≈ 0.109 µM)	% B/B0 [1, 7]: 93.5%; IC50 ([1]; Table 2): >2 µg/mL; % B/B0 ([2]; standard concentration 5 ng/ml): 75.1%
COC1=CC=C2[C@H]3Cc4ccc(OC)c5c4[C@@]2(CCN3C)[C@H]1O5 [Thebaine]	<2.7%	>2 µg/mL	4.3%	0.2032 µg/mL (≈ 0.653 µM)	–	–	–	–	–	–	–	–	–	–	–	–	–	–	–	–
